From patent US10745370B2, “Farnesyl transferase inhibitors and uses thereof” (MACKAY MEMORIAL HOSPITAL, priority 2016, dated 2020)
Values joined by “and” are separate entries in the source; they are usually repeats but may differ in a detail not shown here. Equal values may be shown once. “Also recorded” adds a separate entry of the source.

Legend:
[1] = molecular target: T1, rat PFTase (Rattus norvegicus, UniProt Q02293+Q04631); assay: Inhibition of farnesyl transferase (fluorescence assay); assay type: biochemical; conditions: mean ± SD of three independent experiments
T1 construct: purchased Jena Biosciences
Protocol: The assay was carried out in 384-well microplates with a final volume of 20 μl by the method modified from the previous report (Long et al., 2009). Briefly, 10 nM of rat PFTase (Jena Biosciences, Jena, Germany) was incubated with the tested compound or DMSO (1%) for 15 min, and then the mixture was added in a solution (50 mM Tris-HCl, pH 7.5, 5 mM MgCl2, 5 mM DTT, 0.1 mM ZnCl2, 0.2% octyl-β-D-glucopyranoside (Sigma, St. Louis, Mo.), 10 μM PFTase substrate dansyl-Gly-Cys-Val-Leu-Ser-OH, and 10 μM farnesyl pyrophosphate (Sigma, St. Louis, Mo.)) to initiate the reaction. The reaction was incubated at 37° C. for 30 min, and the fluorescence was detected by a M5 plate reader (Molecular Devices, CA, USA) at 340 nm excitation and 505 nm emission.

[2] = test system: macrophages; assay: Morphology of macrophages (photographs, Liu's staining); assay type: cell-based, human; conditions: for morphology and adhesion of treated macrophages: 10 μM, FIG. 1 panel B; for morphology of cells by Liu's staining compared with control cells: FIG. 1 panel C
Protocol: (§1) Mononuclear cells (MNCs) were separated from the peripheral blood of healthy donors obtained with written consent by use of Ficoll-Hypaque density centrifugation, followed by positive selection with magnetic anti-CD14 microbeads.
(§2) The isolated CD14^+ cells were cultivated in Minimum Essential Medium (MEM medium) supplemented with 10% fetal bovine serum (FBS), 100 ng/ml granulocyte-macrophage colony-stimulating factor (GM-CSF, Gentaur), and 50 ng/ml interleukin-4 (IL-4, R&D), and kept in an environment of 37° C. with 5% CO2/95% air.
(§3) To evaluate the effects of the present compound on dendritic cells, the CD14^+ cells were respectively treated with 10 μM of test compound (i.e., Mib-5, Mib-6, Mib-7, Mib-8, Mib-9, and Mib-10) on day 1. Then, on day 3, the cultured medium in each well was replenished by adding half the volume of the cultured medium containing the same treatment as indicated above. Then, on day 6, a cytokine cocktail containing IL-1, IL-6, and tumor necrosis factor-α (TNF-α) was added to induce maturation. On day 7, the differentiated dendritic cells were collected and subjected to further assays, including viability assay, morphology observation, and cell marker staining.
(§4) As to the effects of the present compound on macrophages, the CD14^+ cells were cultivated and treated as indicated above except the addition of cytokine cocktail on day 6. The macrophages were collected on day 6 and subjected to further assays, including viability assay, trypan blue exclusion test, morphology observation, cell marker staining, and phagocytotic activity analysis.
Cells were transferred to a glass coverslide and covered with solution A (0.5 g of methylene blue and 1.7 g of Eosin yellow dissolved in 1,000 ml of ethanol). After 45 seconds, solution B (1.3 g of azure, 1.4 g of methylene blue, 23.38 g of Na2HPO4, 6.5 g of KH2PO4, dissolved in 1,000 ml of distilled water) was added in the proportion of 2 parts of B to 1 part of A. Mixed the solutions well by blowing the surface. The slide was left standing for 90 seconds and then washed off the staining solution rapidly by running water. The morphology of stained cells was then examined under microscope.

[3] = test system: macrophages; assay: Trypan blue exclusion test on macrophages; assay type: cell-based; conditions: trypan blue analysis, FIG. 2
Protocol: as §1, §2, §3, §4
(§5) The dye exclusion test is used to determine the number of viable cells present in a cell suspension. […] In this test, the cells were first treated with a test compound (i.e., Mib-5, 6, 7, 8, 9 or 10) for a certain period of time (e.g., 72 hours), then the cells were harvested and re-suspended in suitable buffer solution. The cell suspension was then mixed with trypan blue dye and then visually examined to determine whether cells had taken up or excluded the dye. A viable cell will have a clear cytoplasm, whereas a nonviable cell will have a blue cytoplasm. The concentration required to reduce viability by 50% (IC50) after 72 hours was extrapolated from the dose-response curves by different concentrations of the test compound using a second-order polynomial regression model and analyzing with SigmaPlot Software (Systat Software Inc., San Jose, Calif.).

[4] = test system: M1 macrophages; assay: Differentiation analysis, cell viability of M1 macrophages; assay type: cell-based, human; conditions: for Cell viability of M1 macrophages: LPS-induced M1 differentiation, 6 days, control 100%; for change in M1 population of macrophages compared with control: Table 4
Protocol: (§6) M1 differentiation of freshly isolated CD14^+ cells was induced by the addition of lipopolysaccharide (LPS), while M2 differentiation of freshly isolated CD14^+ cells was induced by the addition of IL-4. Then, the present compounds (e.g., Mib-5, 6, 7, 8, 9, or 10) were added at the indicated dosages. 6 days later, the population of the differentiated macrophages were then determined by cell viability analysis. The cell viability was measured by cell counting kit-8 (CCK-8, Sigma). The half maximal inhibitory concentrations (IC50) of the test compounds on macrophages or dendritic cells were calculated.

[5] = test system: M2 macrophages; assay: Differentiation analysis, cell viability of M2 macrophages; assay type: cell-based, human; conditions: for Cell viability of M2 macrophages: IL-4-induced M2 differentiation, 6 days, control 100%
Protocol: as §6

[6] = test system: macrophages; assay: Cell marker expression on macrophages (total), flow cytometry; assay type: cell-based, human; conditions: for total expressed level of CD14: FIG. 3; for level of CD206: FIG. 5; for total level of CD80: compared with the control
Protocol: as §1, §2, §3, §4
(§7) The expression of various types of cell markers, such as CD14, CD206, and CD80 expressed on the surface of macrophages, and CD1a, CD14, CD83, and HLA-DR expressed on the dendritic cells, were respectively detected by fluorescein isothiocyanate (FITC) and phycoerythrin (PE)-conjugated monoclonal antibodies in FACS caliber flowcytometer. Monoclonal antibodies used in this examples included anti-CD14 (IgG-FITC), anti-CD206 (IgG-FITC), anti-CD80-PE, anti-CD1a-PE, anti-CD83-PE and anti-human leukocyte antigen (HLA)-DR-PE. Results were analyzed by CellQuest software.

[7] = test system: M2 macrophages; assay: Cell marker expression on M2 macrophages, flow cytometry; assay type: cell-based, human; conditions: for CD14: M2 population after treatment: Table 5; for CD80: change in M2 population: Table 6; for CD206: change in M2: Table 7; for CD80 expression on M2 macrophages: control 47.64%; for CD14 expression on M2 macrophages: control 55.66%; for CD206 expression on M2 macrophages: control 74.49%
Protocol: as §6, with “analysis.” for “analysis. The cell viability was measured by cell counting kit-8 (CCK-8, Sigma). The half maximal inhibitory concentrations (IC50) of the test compounds on macrophages or dendritic cells were calculated.”
as §7

[8] = test system: dendritic cells; assay: Trypan blue exclusion analysis of dendritic cells; assay type: cell-based, human; conditions: 10 μM, seven days, FIG. 7
Protocol: as §1, §2, §3, §5
In this example, the effects of the present compounds on dendritic cells were investigated. Briefly, the dendritic cells were respectively treated with 10 μM of Mib-5, Mib-6, Mib-7, Mib-8, or Mib-10. Seven days later, the cells were harvested and subjected to analysis of morphology observation, cell viability, and/or cell marker expression.

Structure (SMILES) | IC50 [1] | morphology and adhesion of treated macrophages [2] | morphology of cells by Liu's staining compared with control cells [2] | cell viability / cytotoxicity toward macrophages [3] | Cell viability of M1 macrophages [4] | change in M1 population of macrophages compared with control [4] | Cell viability of M2 macrophages [5] | change in M2 population of macrophages compared with control ([5]; Table 4) | total expressed level of CD14 [6] | level of CD206 [6] | total level of CD80 [6] | CD14: M2 population after treatment [7] | CD80: change in M2 population [7] | CD206: change in M2 [7] | CD80 expression on M2 macrophages [7] | CD14 expression on M2 macrophages [7] | CD206 expression on M2 macrophages [7] | levels of viable dendritic cells [8] | increase of M2 population ([5]; compared with control, Table 4)
COC1=CC(=O)[C@@]2(c3cc(=O)c4ccc(OC)cc4o3)[C@H](C[C@]3(C)[C@@H](C(=O)O)CC=C4[C@H]3CCCC4(C)C)C(C)=CC[C@H]2C1=O [Mib-5] | < 10 µM and 7.51 µM | became rounded up, and were less adhesive | not significantly affected | did not adversely affect cell viability; also recorded: no significant cytotoxicity | 63.5% | significant reduction | 86.4% | slight decrease | not affected | increase | significantly reduced | significant decrease | increase | increase | 53.03% | 80.33% | 78.77% | reduced | –
COC1=CC(=O)[C@@]2(c3cc(=O)c4c(O)cc(O)cc4o3)[C@H](C[C@]3(C)[C@@H](C(=O)O)CC=C4[C@H]3CCCC4(C)C)C(C)=CC[C@H]2C1=O [Mib-7] | < 10 µM and 8.46 µM | became rounded up, and were less adhesive | not significantly affected | did not adversely affect cell viability; also recorded: no significant cytotoxicity | 82.5% | decrease | 136.4% | – | not affected | increase | significantly reduced | significant decrease | increase | increase | 49.58% | 89.76% | 88.88% | reduced | about 40%
